This note sets out measurements from PubChem BioAssay AID776 (The Scripps Research Institute Molecular Screening Center, 2007).

Each structure is given as a SMILES string. The source made the active and inactive calls.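 Rule for the calls: active = compounds whose IC50 for cutting the S1P-driven reporter signal is at most 40 micromolar; inactive = IC50 above 40 micromolar.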 Some results are limits rather than exact numbers.

This experiment has as its target CHO S1P3/Ga15 NFAT-beta-lactamase reporter, FRET. Description: S1P3 receptor NFAT-BLA reporter inhibition, dose response, counter-screen for 5HT1E antagonist project, CHO cells, Ga15, NFAT beta-lactamase, FRET (AID 776). On the technique in general: Counterscreens check selectivity or assay interference.
Regarding `CSc1ccccc1N=CC1=C(O)CC(C)(C)CC1=O`, the IC50 (as a rule, the concentration that gives 50% inhibition) was 4.33 µM. The figure for `CC(=O)Oc1ccc(N2C(=O)C3C(C2=O)C2(C)C=CC3(C)O2)cc1` (stereo not given) is 7.56 µM; for `O=C1C2C3C=CC(CO)(O3)C2C(=O)N1c1ccc(-c2ccccc2)cc1` (stereo not given) it is > 12.4 µM (inactive). `COc1ccc(N2C(=O)CC(NCc3ccncc3)C2=O)cc1` (stereo not given): the IC50 was > 50 µM (inactive).

Consider `COc1cc2c(cc1OC)C1=C(C#N)CC/C(=N\S(=O)(=O)c3ccccc3)N1CC2`, for which the IC50 is > 50 µM (inactive).
